Key:
Test in all cases: KinomeScan
Format in all cases: binding
Conditions in all cases: 1uM
PIP5K2C = biological target: T1, PIP5K2C (Homo sapiens, UniProt Q8TBX8)
T1 construct: purchased DiscoveRx KINOMEscan

EGFR(G719S) = biological target: T2, EGFR(G719S) (Homo sapiens, UniProt P00533, G719S)
T2 construct: purchased DiscoveRx KINOMEscan

SIK = biological target: T3, SIK (Homo sapiens, UniProt P57059)
T3 construct: purchased DiscoveRx KINOMEscan

MARK2 = biological target: T4, MARK2 (Homo sapiens, UniProt Q7KZI7)
T4 construct: purchased DiscoveRx KINOMEscan
T4 sequence (Q7KZI7 whole entry): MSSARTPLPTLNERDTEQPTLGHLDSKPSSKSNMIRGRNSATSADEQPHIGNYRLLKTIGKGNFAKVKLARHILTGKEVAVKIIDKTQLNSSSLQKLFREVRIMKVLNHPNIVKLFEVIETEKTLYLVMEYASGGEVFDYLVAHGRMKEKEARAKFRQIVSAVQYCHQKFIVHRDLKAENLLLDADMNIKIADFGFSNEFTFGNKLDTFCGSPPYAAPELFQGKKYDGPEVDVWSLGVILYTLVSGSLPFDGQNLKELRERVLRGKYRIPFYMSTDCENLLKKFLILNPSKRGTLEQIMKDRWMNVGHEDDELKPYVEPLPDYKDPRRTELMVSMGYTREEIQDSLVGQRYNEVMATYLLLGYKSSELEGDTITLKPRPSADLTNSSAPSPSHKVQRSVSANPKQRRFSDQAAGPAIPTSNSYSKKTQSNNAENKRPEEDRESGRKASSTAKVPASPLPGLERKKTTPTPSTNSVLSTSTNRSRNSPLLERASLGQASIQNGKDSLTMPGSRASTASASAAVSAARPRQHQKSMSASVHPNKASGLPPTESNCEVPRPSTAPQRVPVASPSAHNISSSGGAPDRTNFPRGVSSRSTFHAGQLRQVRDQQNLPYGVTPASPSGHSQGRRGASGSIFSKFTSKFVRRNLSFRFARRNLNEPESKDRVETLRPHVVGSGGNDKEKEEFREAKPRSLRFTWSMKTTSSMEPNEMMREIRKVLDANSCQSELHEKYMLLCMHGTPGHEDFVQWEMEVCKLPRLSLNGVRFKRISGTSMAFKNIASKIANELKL

DAPK3 = biological target: T5, DAPK3 (Homo sapiens, UniProt O43293)
T5 construct: purchased DiscoveRx KINOMEscan

IRAK3 = biological target: T6, IRAK3 (Homo sapiens, UniProt Q9Y616)
T6 construct: purchased DiscoveRx KINOMEscan

[1] = biological target: T7, ABL1(F317I)-phosphorylated (Homo sapiens, UniProt P00519, F317I)
T7 construct: purchased DiscoveRx KINOMEscan

MKNK2 = biological target: T8, MKNK2 (Homo sapiens, UniProt Q9HBH9)
T8 construct: purchased DiscoveRx KINOMEscan

DRAK1 = biological target: T9, DRAK1 (Homo sapiens, UniProt Q9UEE5)
T9 construct: purchased DiscoveRx KINOMEscan
T9 sequence (Q9UEE5 whole entry): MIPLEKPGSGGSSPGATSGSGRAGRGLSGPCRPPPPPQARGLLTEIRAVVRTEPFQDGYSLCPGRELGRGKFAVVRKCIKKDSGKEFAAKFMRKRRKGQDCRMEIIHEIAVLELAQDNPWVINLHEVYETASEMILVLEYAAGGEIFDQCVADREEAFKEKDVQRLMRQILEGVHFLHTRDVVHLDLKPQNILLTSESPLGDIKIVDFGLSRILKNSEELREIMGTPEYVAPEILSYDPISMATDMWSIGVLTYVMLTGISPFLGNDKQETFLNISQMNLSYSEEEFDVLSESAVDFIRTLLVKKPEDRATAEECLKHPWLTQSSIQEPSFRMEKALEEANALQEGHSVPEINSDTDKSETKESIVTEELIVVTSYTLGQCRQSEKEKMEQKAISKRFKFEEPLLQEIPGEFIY

MUSK = biological target: T10, MUSK (Homo sapiens, UniProt O15146)
T10 construct: purchased DiscoveRx KINOMEscan

PDPK1 = biological target: T11, PDPK1 (Homo sapiens, UniProt O15530)
T11 construct: purchased DiscoveRx KINOMEscan

KIT(L576P) = biological target: T12, KIT(L576P) (Homo sapiens, UniProt P10721, L576P)
T12 construct: purchased DiscoveRx KINOMEscan

TAOK3 = biological target: T13, TAOK3 (Homo sapiens, UniProt Q9H2K8)
T13 construct: purchased DiscoveRx KINOMEscan
T13 sequence (Q9H2K8 whole entry): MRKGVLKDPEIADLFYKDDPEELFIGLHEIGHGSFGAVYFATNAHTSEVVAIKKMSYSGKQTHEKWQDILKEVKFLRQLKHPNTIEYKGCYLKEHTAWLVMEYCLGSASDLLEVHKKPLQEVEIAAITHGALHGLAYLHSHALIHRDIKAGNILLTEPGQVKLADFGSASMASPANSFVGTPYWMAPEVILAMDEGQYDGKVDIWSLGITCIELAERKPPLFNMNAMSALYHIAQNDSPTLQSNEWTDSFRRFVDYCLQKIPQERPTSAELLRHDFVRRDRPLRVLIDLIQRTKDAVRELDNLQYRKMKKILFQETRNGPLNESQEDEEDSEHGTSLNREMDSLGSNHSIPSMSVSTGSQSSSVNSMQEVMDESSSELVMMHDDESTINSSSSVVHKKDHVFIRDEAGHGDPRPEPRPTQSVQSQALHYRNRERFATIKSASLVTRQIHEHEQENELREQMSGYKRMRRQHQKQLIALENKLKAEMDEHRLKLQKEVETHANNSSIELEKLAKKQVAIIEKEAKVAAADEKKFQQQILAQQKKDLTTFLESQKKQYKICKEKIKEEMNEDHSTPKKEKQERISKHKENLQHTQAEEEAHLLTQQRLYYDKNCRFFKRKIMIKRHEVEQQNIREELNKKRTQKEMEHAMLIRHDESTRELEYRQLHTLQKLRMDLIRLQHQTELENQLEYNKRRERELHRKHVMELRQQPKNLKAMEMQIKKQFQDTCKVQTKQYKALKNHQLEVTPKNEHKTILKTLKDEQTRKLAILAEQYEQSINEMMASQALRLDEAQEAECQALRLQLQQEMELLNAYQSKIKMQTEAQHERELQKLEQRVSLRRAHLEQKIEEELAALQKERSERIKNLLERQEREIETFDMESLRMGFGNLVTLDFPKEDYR

[2] = biological target: T14, JAK3(JH1domain-catalytic) (Homo sapiens, UniProt P52333)
T14 construct: JAK3(JH1domain-catalytic); purchased DiscoveRx KINOMEscan

IGF1R = biological target: T15, IGF1R (Homo sapiens, UniProt P08069)
T15 construct: purchased DiscoveRx KINOMEscan

GSK3B = biological target: T16, GSK3B (Homo sapiens, UniProt P49841)
T16 construct: purchased DiscoveRx KINOMEscan
T16 sequence (P49841 whole entry): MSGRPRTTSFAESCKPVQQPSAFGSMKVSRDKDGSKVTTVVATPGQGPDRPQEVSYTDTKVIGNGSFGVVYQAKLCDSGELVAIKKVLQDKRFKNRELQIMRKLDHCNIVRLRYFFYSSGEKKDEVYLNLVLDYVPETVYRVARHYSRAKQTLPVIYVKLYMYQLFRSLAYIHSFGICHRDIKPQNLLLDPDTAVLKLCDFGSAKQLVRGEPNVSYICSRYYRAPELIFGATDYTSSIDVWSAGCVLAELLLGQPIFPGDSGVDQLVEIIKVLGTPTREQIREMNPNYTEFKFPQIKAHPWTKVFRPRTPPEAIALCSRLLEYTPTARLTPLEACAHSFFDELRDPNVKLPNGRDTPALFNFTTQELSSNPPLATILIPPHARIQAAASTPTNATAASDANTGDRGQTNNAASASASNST

OSR1 = biological target: T17, OSR1 (Homo sapiens, UniProt O95747)
T17 construct: purchased DiscoveRx KINOMEscan

LIMK2 = biological target: T18, LIMK2 (Homo sapiens, UniProt P53671)
T18 construct: purchased DiscoveRx KINOMEscan

CDC2L2 = biological target: T19, CDC2L2 (Homo sapiens, UniProt Q9UQ88)
T19 construct: purchased DiscoveRx KINOMEscan
T19 sequence (Q9UQ88 whole entry): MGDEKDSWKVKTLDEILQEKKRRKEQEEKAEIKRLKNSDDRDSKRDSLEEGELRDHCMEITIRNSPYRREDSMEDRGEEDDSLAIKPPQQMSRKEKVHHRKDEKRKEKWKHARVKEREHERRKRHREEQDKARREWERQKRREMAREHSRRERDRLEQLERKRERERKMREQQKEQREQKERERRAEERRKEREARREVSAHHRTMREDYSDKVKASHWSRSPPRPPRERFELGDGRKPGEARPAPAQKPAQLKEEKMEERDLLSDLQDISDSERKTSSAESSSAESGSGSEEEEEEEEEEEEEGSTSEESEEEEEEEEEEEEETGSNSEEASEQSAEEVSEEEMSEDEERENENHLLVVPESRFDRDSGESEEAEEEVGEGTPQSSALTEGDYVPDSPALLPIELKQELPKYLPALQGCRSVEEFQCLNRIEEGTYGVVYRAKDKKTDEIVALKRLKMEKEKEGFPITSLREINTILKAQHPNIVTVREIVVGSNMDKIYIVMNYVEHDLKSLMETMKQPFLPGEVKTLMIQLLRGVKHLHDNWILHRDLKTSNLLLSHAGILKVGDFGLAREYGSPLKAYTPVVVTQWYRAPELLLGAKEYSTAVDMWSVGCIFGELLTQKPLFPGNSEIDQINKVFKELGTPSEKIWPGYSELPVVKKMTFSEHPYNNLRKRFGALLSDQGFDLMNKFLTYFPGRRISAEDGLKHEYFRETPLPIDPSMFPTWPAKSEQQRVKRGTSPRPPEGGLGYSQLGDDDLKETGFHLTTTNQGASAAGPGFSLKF

KIT(V559D,V654A) = biological target: T20, KIT(V559D,V654A) (Homo sapiens, UniProt P10721, V559D/V654A)
T20 construct: purchased DiscoveRx KINOMEscan

PRP4 = biological target: T21, PRP4 (Homo sapiens, UniProt Q13523)
T21 construct: purchased DiscoveRx KINOMEscan

MARK3 = biological target: T22, MARK3 (Homo sapiens, UniProt P27448)
T22 construct: purchased DiscoveRx KINOMEscan

PLK1 = biological target: T23, PLK1 (Homo sapiens, UniProt P53350)
T23 construct: purchased DiscoveRx KINOMEscan
T23 sequence (P53350 whole entry): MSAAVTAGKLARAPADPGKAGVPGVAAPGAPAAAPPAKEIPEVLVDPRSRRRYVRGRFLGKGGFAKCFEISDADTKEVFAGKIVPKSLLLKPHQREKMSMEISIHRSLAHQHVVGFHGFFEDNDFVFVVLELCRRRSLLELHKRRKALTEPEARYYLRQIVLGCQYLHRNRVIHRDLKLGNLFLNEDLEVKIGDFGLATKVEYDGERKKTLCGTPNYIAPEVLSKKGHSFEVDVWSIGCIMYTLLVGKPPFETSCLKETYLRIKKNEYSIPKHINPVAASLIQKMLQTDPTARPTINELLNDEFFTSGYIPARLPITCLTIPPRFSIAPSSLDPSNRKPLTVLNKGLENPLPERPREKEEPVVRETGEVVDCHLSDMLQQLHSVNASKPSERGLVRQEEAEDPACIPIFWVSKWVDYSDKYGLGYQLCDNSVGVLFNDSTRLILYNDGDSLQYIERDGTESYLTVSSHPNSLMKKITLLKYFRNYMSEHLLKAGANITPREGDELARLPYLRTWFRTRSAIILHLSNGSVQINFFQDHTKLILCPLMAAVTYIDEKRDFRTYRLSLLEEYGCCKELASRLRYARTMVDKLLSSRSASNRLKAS

SGK3 = biological target: T24, SGK3 (Homo sapiens, UniProt Q96BR1)
T24 construct: purchased DiscoveRx KINOMEscan

TYRO3 = biological target: T25, TYRO3 (Homo sapiens, UniProt Q06418)
T25 construct: purchased DiscoveRx KINOMEscan

[3] = biological target: T26, ABL1(T315I)-phosphorylated (Homo sapiens, UniProt P00519, T315I)
T26 construct: purchased DiscoveRx KINOMEscan

ULK2 = biological target: T27, ULK2 (Homo sapiens, UniProt Q8IYT8)
T27 construct: purchased DiscoveRx KINOMEscan

VEGFR2 = biological target: T28, VEGFR2 (Homo sapiens, UniProt P35968)
T28 construct: purchased DiscoveRx KINOMEscan

YSK4 = biological target: T29, YSK4 (Homo sapiens, UniProt Q56UN5)
T29 construct: purchased DiscoveRx KINOMEscan

BMX = biological target: T30, BMX (Homo sapiens, UniProt P51813)
T30 construct: purchased DiscoveRx KINOMEscan

CLK4 = biological target: T31, CLK4 (Homo sapiens, UniProt Q9HAZ1)
T31 construct: purchased DiscoveRx KINOMEscan

LZK = biological target: T32, LZK (Homo sapiens, UniProt O43283)
T32 construct: purchased DiscoveRx KINOMEscan

CDKL3 = biological target: T33, CDKL3 (Homo sapiens, UniProt Q8IVW4)
T33 construct: purchased DiscoveRx KINOMEscan

TIE1 = biological target: T34, TIE1 (Homo sapiens, UniProt P35590)
T34 construct: purchased DiscoveRx KINOMEscan

CSNK1G3 = biological target: T35, CSNK1G3 (Homo sapiens, UniProt Q9Y6M4)
T35 construct: purchased DiscoveRx KINOMEscan
T35 sequence (Q9Y6M4 whole entry): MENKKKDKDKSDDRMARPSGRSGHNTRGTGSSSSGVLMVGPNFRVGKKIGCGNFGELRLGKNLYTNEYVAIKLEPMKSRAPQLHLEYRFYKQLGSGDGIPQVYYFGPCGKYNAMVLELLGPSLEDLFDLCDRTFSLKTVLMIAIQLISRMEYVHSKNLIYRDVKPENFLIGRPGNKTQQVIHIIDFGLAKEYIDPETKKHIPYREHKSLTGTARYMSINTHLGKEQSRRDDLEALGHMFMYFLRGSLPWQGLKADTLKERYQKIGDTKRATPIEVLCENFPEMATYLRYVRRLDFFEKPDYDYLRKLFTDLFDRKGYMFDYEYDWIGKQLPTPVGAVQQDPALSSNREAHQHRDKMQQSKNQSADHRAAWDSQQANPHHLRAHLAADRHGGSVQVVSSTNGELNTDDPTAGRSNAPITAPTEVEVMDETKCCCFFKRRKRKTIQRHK

PDGFRA = biological target: T36, PDGFRA (Homo sapiens, UniProt P16234)
T36 construct: purchased DiscoveRx KINOMEscan

ERK4 = biological target: T37, ERK4 (Homo sapiens, UniProt P31152)
T37 construct: purchased DiscoveRx KINOMEscan

MEK4 = biological target: T38, MEK4 (Homo sapiens, UniProt P45985)
T38 construct: purchased DiscoveRx KINOMEscan

GRK4 = biological target: T39, GRK4 (Homo sapiens, UniProt P32298)
T39 construct: purchased DiscoveRx KINOMEscan

NDR2 = biological target: T40, NDR2 (Homo sapiens, UniProt Q9Y2H1)
T40 construct: purchased DiscoveRx KINOMEscan
T40 sequence (Q9Y2H1 whole entry): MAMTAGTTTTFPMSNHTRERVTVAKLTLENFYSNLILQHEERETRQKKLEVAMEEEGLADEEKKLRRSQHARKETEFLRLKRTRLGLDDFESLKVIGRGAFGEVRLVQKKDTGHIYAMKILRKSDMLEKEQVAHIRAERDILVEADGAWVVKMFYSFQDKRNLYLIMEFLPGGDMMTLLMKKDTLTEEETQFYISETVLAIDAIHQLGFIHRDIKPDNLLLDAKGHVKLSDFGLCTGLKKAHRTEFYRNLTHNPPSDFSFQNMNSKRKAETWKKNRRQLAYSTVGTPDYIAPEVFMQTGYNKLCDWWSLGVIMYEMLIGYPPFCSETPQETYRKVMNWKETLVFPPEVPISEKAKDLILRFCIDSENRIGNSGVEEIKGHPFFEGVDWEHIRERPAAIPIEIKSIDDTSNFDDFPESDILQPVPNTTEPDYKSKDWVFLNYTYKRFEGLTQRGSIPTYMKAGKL

MAPKAPK5 = biological target: T41, MAPKAPK5 (Homo sapiens, UniProt Q8IW41)
T41 construct: purchased DiscoveRx KINOMEscan

ACVR1 = biological target: T42, ACVR1 (Homo sapiens, UniProt Q04771)
T42 construct: purchased DiscoveRx KINOMEscan

DDR1 = biological target: T43, DDR1 (Homo sapiens, UniProt Q08345)
T43 construct: purchased DiscoveRx KINOMEscan

CDK8 = biological target: T44, CDK8 (Homo sapiens, UniProt P49336)
T44 construct: purchased DiscoveRx KINOMEscan

## Cc1nc(NC(=O)[C@@H](N)C(C)C)sc1-c1cnc(Cl)c(NS(=O)(=O)c2ccccc2)c1 [PI3KD-IN-015]
PIP5K2C
  KinomeScan PIP5K2C: 90
EGFR(G719S)
  KinomeScan EGFR(G719S): 100
SIK
  KinomeScan SIK: 99
MARK2
  KinomeScan MARK2: 95
DAPK3
  KinomeScan DAPK3: 91
IRAK3
  KinomeScan IRAK3: 100
[1]
  KinomeScan ABL1(F317I)-phosphorylated: 89
MKNK2
  KinomeScan MKNK2: 98
DRAK1
  KinomeScan DRAK1: 91
MUSK
  KinomeScan MUSK: 96
PDPK1
  KinomeScan PDPK1: 100
KIT(L576P)
  KinomeScan KIT(L576P): 83
TAOK3
  KinomeScan TAOK3: 93
[2]
  KinomeScan JAK3(JH1domain-catalytic): 98
IGF1R
  KinomeScan IGF1R: 100
GSK3B
  KinomeScan GSK3B: 97
OSR1
  KinomeScan OSR1: 75
LIMK2
  KinomeScan LIMK2: 100
CDC2L2
  KinomeScan CDC2L2: 100
KIT(V559D,V654A)
  KinomeScan KIT(V559D,V654A): 97
PRP4
  KinomeScan PRP4: 93
MARK3
  KinomeScan MARK3: 100
PLK1
  KinomeScan PLK1: 90
SGK3
  KinomeScan SGK3: 91
TYRO3
  KinomeScan TYRO3: 100
[3]
  KinomeScan ABL1(T315I)-phosphorylated: 98
ULK2
  KinomeScan ULK2: 79
VEGFR2
  KinomeScan VEGFR2: 99
YSK4
  KinomeScan YSK4: 100
BMX
  KinomeScan BMX: 100
CLK4
  KinomeScan CLK4: 100
LZK
  KinomeScan LZK: 92
CDKL3
  KinomeScan CDKL3: 100
TIE1
  KinomeScan TIE1: 94
CSNK1G3
  KinomeScan CSNK1G3: 96
PDGFRA
  KinomeScan PDGFRA: 94
ERK4
  KinomeScan ERK4: 100
MEK4
  KinomeScan MEK4: 100
GRK4
  KinomeScan GRK4: 92
NDR2
  KinomeScan NDR2: 100
MAPKAPK5
  KinomeScan MAPKAPK5: 82
ACVR1
  KinomeScan ACVR1: 100
DDR1
  KinomeScan DDR1: 100
CDK8
  KinomeScan CDK8: 100
